Assay type in all cases: cell-based
Assay [1] has as its system Actinobacillus actinomycetemcomitans. The assay can be described thus: Actinobacillus actinomycetemcomitans growth inhibition. Conditions: Aggregatibacter actinomycetemcomitans; final concentration 15 μg/ml. The protocol: [The procedure below names another organism; the source lists this organism under the same test.] (§1) The inventor verified the test by dissolving 1 mg of omega-3 fatty acids (EPA, DHA, and ALA) and omega-6 fatty acids (ARA, GLA), omega-3 fatty acid methyl esters (EPA-ME, DHA-ME, ALA-ME), and omega-3 fatty acid ethyl esters (EPA-EE, DHA-EE, ALA-EE) in 1000 μl ethanol solution; took 1 (final concentration 1 μg/ml) and 5 μl (final concentration 5 μg/ml) solution by adding 100 μl of Streptococcus mutans in the culture medium cultured overnight at 37° C. After the overnight culture, the medium was diluted 1:10000 times, 5 μl of the diluted culture was applied to blood agar plate and cultured overnight. Calculated the number of colonies on the plates and compared with the control group to obtain the percentage of inhibition.

The subject of another assay is Candida albicans. The experiment in a line: Candida albicans growth inhibition. Particulars: final concentration 25 μg/ml. As for the experimental part: [The procedure below names another organism; the source lists this organism under the same test.] as §1
A further assay concerns Streptococcus mutans. The assay can be described thus: Streptococcus mutans growth inhibition, colony count on blood agar plate vs control. Conditions: overnight culture 37° C, colony count vs negative control, read-out: IC50 against Streptococcus mutans. As for the experimental part:
as §1

≈ marks a conversion by molar mass, not a printed value.

As to `CC/C=C\C/C=C\C/C=C\C/C=C\C/C=C\C/C=C\CCC(=O)O` [DHA, docosahexaenoic acid], in assay [1], the inhibition at 15 µg/mL was 50%. In the assay on Candida albicans, this compound yielded an inhibition at 25 µg/mL of 50%.

On to `CCCCC/C=C\C/C=C\C/C=C\C/C=C\CCCC(=O)O` [ARA, arachidonic acid], for which the inhibition at 15 µg/mL in assay [1] stood at 50%. Further, the inhibition at 25 µg/mL with Candida albicans worked out at 50%. The IC50 in the assay on Streptococcus mutans is around 5 µg/mL (≈ 16.4 µM).

Compound `CC/C=C\C/C=C\C/C=C\C/C=C\C/C=C\CCCC(=O)O` [EPA, eicosapentaenoic acid] returned an inhibition at 15 µg/mL in assay [1] of 50%. The inhibition at 25 µg/mL in the assay with Candida albicans is 50%.

Turning to `CCCCC/C=C\C/C=C\C/C=C\CCCCC(=O)O` [GLA, γ-linolenic acid], the IC50 in the assay with Streptococcus mutans was around 5 µg/mL (≈ 18 µM).

For the compound `CC/C=C\C/C=C\C/C=C\CCCCCCCC(=O)O` [ALA, α-linolenic acid], the inhibition at 15 µg/mL in assay [1] amounted to 50%. The same compound returned an inhibition at 25 µg/mL in the assay with Candida albicans of 50%.

Source of the values: patent publication US20110098495A1, “Compositions and methods of omega polyunsaturated fatty acids for the treatment of oral diseases” (priority 2009, published 2011).
